How the values were obtained:
[1] = system: colonic Treg (cTreg); experiment: SPF SCFA intervention; flow cytometry of lymphocytes; type: in vivo, mice
Protocol: To isolate LP lymphocytes, small and large intestines were collected and opened longitudinally and washed with PBS to remove fecal contents. To remove epithelial cells, mucus and fat tissue, intestines were incubated 2 times in EDTA (5 mM)/DTT (1 mM)/Dulbecco's PBS (calcium and magnesium-free) solution (5 ml/colon) for 25 min at 37° C. Intestines were then minced and collagenase-digested two times for 45 min at 37° C. in RPMI containing 1 mg/ml collagenase type VIII (SIGMA), 25 μg/ml DNase I (Roche), 50 μg/ml Dispase (StemCell Technologies) and 0.01M HEPES (StemCell Technologies). The crude cell suspension was loaded onto a 40%/90% Percoll (GE Healthcare) gradient and centrifuged at 720 x g for 25 min at room temperature with acceleration and brake turned off. LP lymphocytes were collected from the 40%/90% interface.
Intracellular staining of the transcription factors Foxp3, Helios and T-bet was performed using the Foxp3 Fix/Perm Buffer Set (Biolegend). For detection of intracellular cytokines, cells were first stimulated for 4 h with 50 ng/ml PMA and 1 μg/ml ionomycin in the presence of Brefeldin A (All obtained from Sigma), followed by staining for surface markers. Cells were then fixed and permeabilized using the Foxp3 Fix/Perm Buffer Set (Biolegend) and stained for intracellular cytokines. The following antibodies were used: PE-labeled anti-Foxp3 (FJK-16s, eBioscience), Pacific Blue-labeled anti-Helios (22F6), PE-, FITC- or APC-labeled anti-CD4 (RM4-5), PECy7-labeled anti-CD3 (145-2C11), PE- or APC-labeled anti-IL-10 (JES5-16E3), PerCP-Cy5.5-labeled anti-IL-17 (TC11-18H10.1), APC- or PE-Cy7-labeled anti-IFNγ (XMG1.2), Pacific Blue-labeled anti-TGFβ1 (TW7-16B4), FITC-, PerCP-Cy5.5 or Pacific Blue-labeled anti-CD45 (30-F11), PerCP-Cy5.5 anti-CD45RB (C363-16A), PE- or FITC-labeled anti-CD25 (PC61), Brilliant Violet 421-labeled anti-CD127 (A7R34), GPR43 rabbit polyclonal (Abcam Catalog *Ab118449, and anti-rabbit IgG DyLight649 (Poly4064). […] Flow cytometry was performed using LSRII and data were analyzed with FlowJo software (TreeStar, Inc.). […]

[2] = system: colonic Treg (cTreg); experiment: Antibiotic (vancomycin) treatment of SPF mice with or without SCFA; type: in vivo; conditions: Ffar2-/- vs Ffar2+/+ mice
Protocol: Science 341: 1645 (2013). […] The crude cell suspension was loaded onto a 40%/90% Percoll (GE Healthcare) gradient and centrifuged at 720 x g for 25 min at room temperature with acceleration and brake turned off. LP lymphocytes were collected from the 40%/90% interface. Intracellular staining of the transcription factors Foxp3, Helios and T-bet was performed using the Foxp3 Fix/Perm Buffer Set (Biolegend). For detection of intracellular cytokines, cells were first stimulated for 4 h with 50 ng/ml PMA and 1 μg/ml ionomycin in the presence of Brefeldin A (All obtained from Sigma), followed by staining for surface markers. Cells were then fixed and permeabilized using the Foxp3 Fix/Perm Buffer Set (Biolegend) and stained for intracellular cytokines. The following antibodies were used: […] All antibodies were obtained from Biolegend unless otherwise noted. Flow cytometry was performed using LSRII and data were analyzed with FlowJo software (TreeStar, Inc.). Cell sorting was performed using a […] at the Dana-Farber Cancer Institute Flow Cytometry Core.

[3] = system: colonic Treg (cTreg); experiment: Ex vivo RTqPCR of cTreg from in vivo treated mice
Protocol: Science 341: 1645 (2013). […] Treg were isolated from the colon, small intestine, mesenteric lymph node or spleen of C57BL/6 Foxp3^YFP-Cre mice and FACS-sorted based on expression of YFP. […] Real-time (RT)-qPCR was performed using the KAPA SYBR FAST Universal qPCR Kit (KAPA Biosystems) and a Stratagene MX3005P (Agilent Technologies).

[4] = system: HDAC; experiment: HDAC expression (RTqPCR) and histone acetylation (Western blot) in cTreg; type: cell-based, mice; conditions: 0.1 mM, 24 hours
Protocol: Treg were isolated from the colon, small intestine, mesenteric lymph node or spleen of C57BL/6 Foxp3^YFP-Cre mice and FACS-sorted based on expression of YFP. RNA samples were prepared using the RNeasy Mini Kit (Qiagen) and cDNA was synthesized using the Bio-Rad iScript cDNA Synthesis Kit. Real-time (RT)-qPCR was performed using the KAPA SYBR FAST Universal qPCR Kit (KAPA Biosystems) and a Stratagene MX3005P (Agilent Technologies). The following primer sequences were used:
Colonic lamina propria Treg were isolated and whole cell lysates generated using RIPA buffer in the presence of protease inhibitors. Protein lysates were resolved using SDS-PAGE and transferred to PVDF membrane using a Bio-Rad wet transfer apparatus. Blots were probed with antibodies directed against acetyl-histone H3 (K9) and histone H3 (All from Cell Signaling Technologies). After incubation with the appropriate HRP-conjugated antibody, ECL was used for developing. Densitometry analysis of Western blots was performed using Image-J software available on the world wide web at rsbweb.nih.gov/ij/.

[5] = in vivo treated GF and SPF mice

With `CCC(=O)O` [Propionate, propionic acid] the “percentage and number of cTreg” value ([1]; Ffar2+/+ control mice) was “significantly enhanced”, the “percentage and number of cTreg” value ([1]; Ffar2-/- mice) was “no effect” and the “small intestinal Treg numbers” value ([1]; SPF mice, distal ileum lamina propria) was “does not affect”. For the same molecule, the “restoration of cTreg populations and numbers in the setting of vancomycin treatment” value [2] was “Ffar2 was necessary”, the “Foxp3 and IL-10 expression in cTreg” value ([3]; cTreg from GF mice treated in vivo for three weeks) was “significant increase” and the “levels of chemokine receptor CCR9 or α4β7 integrin in cTreg” value [3, 5] was “not altered”. For the same molecule, the “levels of the cTreg homing receptor GPR15” value [3, 5] was “increase”, the “cTreg expression of HDAC6 and HDAC9” value ([4]; Ffar2+/+) was “reduced” and the “cTreg expression of class I HDAC1 and HDAC2 or class IIa HDAC7” value ([4]; Ffar2+/+) was “did not reduce”. The “histone acetylation (H3K9)” value ([4]; cTreg, required Ffar2) was “enhanced”.

Reference: patent US20170340588A1, “MODULATION OF REGULATORY T CELLS VIA G-COUPLED PROTEIN RECEPTOR 43” (President and Fellows of Harvard College, priority 2013, published 2017)
